Reference: ChEMBL document CHEMBL3217491, “Design, synthesis and biological evaluation of imidazopyridine/pyrimidine-chalcone derivatives as potential anticancer agents” (2010)
The source made the active and inactive calls. The rule behind the calls is not given here.

Key:
MCF7 [1] = assay: Cell cycle arrest in human MCF7 cells assessed as accumulation at G2/M phase at 4 uM after 24 hrs by propidium iodide staining-based flow cytometry (reference value: 15.79%); format: functional
[2] = Growth inhibition of human UACC62 cells after 48 hrs by SRB assay; format: functional; conditions: UACC-62, 48 h
U-251 = assay: Growth inhibition of human U251 cells after 48 hrs by SRB assay; format: functional; conditions: U-251, 48 h
786-0 = assay: Growth inhibition of human 786-0 cells after 48 hrs by SRB assay; format: functional; conditions: 786-0, 48 h
NCI-H23 = assay: Growth inhibition of human NCI-H23 cells after 48 hrs by SRB assay; format: functional; conditions: NCI-H23, 48 h
K562 = assay: Growth inhibition of human K562 cells after 48 hrs by SRB assay; format: functional; conditions: K562, 48 h
M14 = assay: Growth inhibition of human M14 cells after 48 hrs by SRB assay; format: functional; conditions: M14, 48 h
[3] = Growth inhibition of human UO31 cells after 48 hrs by SRB assay; format: functional; conditions: UO-31, 48 h
SK-MEL-5 = assay: Growth inhibition of human SK-MEL-5 cells after 48 hrs by SRB assay; format: functional; conditions: SK-MEL-5, 48 h
NCI-H322M = assay: Growth inhibition of human NCI-H322M cells after 48 hrs by SRB assay; format: functional
[4] = Growth inhibition of human HCT15 cells after 48 hrs by SRB assay; format: functional; conditions: HCT-15, 48 h
[5] = Growth inhibition of human HOP92 cells after 48 hrs by SRB assay; format: functional; conditions: HOP-92, 48 h
SF-268 = assay: Growth inhibition of human SF268 cells after 48 hrs by SRB assay; format: functional; conditions: SF-268, 48 h
IGROV-1 = assay: Growth inhibition of human IGROV1 cells after 48 hrs by SRB assay; format: functional; conditions: IGROV-1, 48 h
MCF7 [6] = assay: Growth inhibition of human MCF7 cells after 48 hrs by SRB assay; format: functional; conditions: MCF7, 48 h
MCF7 [7] = assay: Growth inhibition of human MCF7 cells assessed as cell viability at 4 uM after 24 hrs by MTT assay; format: functional, cell-based
[8] = Growth inhibition of human RXF393 cells after 48 hrs by SRB assay; format: functional; conditions: RXF 393, 48 h
NCI-H226 = assay: Growth inhibition of human NCI-H226 cells after 48 hrs by SRB assay; format: functional; conditions: NCI-H226, 48 h
[9] = Growth inhibition of human MOLT4 cells after 48 hrs by SRB assay; format: functional; conditions: MOLT-4, 48 h
[10] = Growth inhibition of human BT549 cells after 48 hrs by SRB assay; format: functional; conditions: BT-549, 48 h
HCT-116 = assay: Growth inhibition of human HCT116 cells after 48 hrs by SRB assay; format: functional; conditions: HCT-116, 48 h
[11] = Growth inhibition of human OVCAR8 cells after 48 hrs by SRB assay; format: functional; conditions: OVCAR-8, 48 h
MDA-MB-468 = assay: Growth inhibition of human MDA-MB-468 cells after 48 hrs by SRB assay; format: functional; conditions: MDA-MB-468, 48 h
SK-MEL-28 = assay: Growth inhibition of human SK-MEL-28 cells after 48 hrs by SRB assay; format: functional; conditions: SK-MEL-28, 48 h
A498 = assay: Growth inhibition of human A498 cells after 48 hrs by SRB assay; format: functional; conditions: A498, 48 h
[12] = Growth inhibition of human EKVX cells after 48 hrs by SRB assay; format: functional
SW-620 = assay: Growth inhibition of human SW620 cells after 48 hrs by SRB assay; format: functional; conditions: SW-620, 48 h
NCI-H522 = assay: Growth inhibition of human NCI-H522 cells after 48 hrs by SRB assay; format: functional; conditions: NCI-H522, 48 h
[13] = Growth inhibition of human SF539 cells after 48 hrs by SRB assay; format: functional; conditions: SF-539, 48 h
HL-60(TB) = assay: Growth inhibition of human HL-60(TB) cells after 48 hrs by SRB assay; format: functional; conditions: HL-60, 48 h
SK-MEL-2 = assay: Growth inhibition of human SK-MEL-2 cells after 48 hrs by SRB assay; format: functional; conditions: SK-MEL-2, 48 h
[14] = Growth inhibition of human NCI-ADR-RES cells after 48 hrs by SRB assay; format: functional
SK-OV-3 = assay: Growth inhibition of human SKOV3 cells after 48 hrs by SRB assay; format: functional; conditions: SK-OV-3, 48 h
A549 = assay: Growth inhibition of human A549 cells after 48 hrs by SRB assay; format: functional; conditions: A549, 48 h
COLO 205 = assay: Growth inhibition of human COLO205 cells after 48 hrs by SRB assay; format: functional; conditions: COLO 205, 48 h
CCRF-CEM = assay: Growth inhibition of human CCRF-CEM cells after 48 hrs by SRB assay; format: functional
SN12C = assay: Growth inhibition of human SN12C cells after 48 hrs by SRB assay; format: functional
[15] = Growth inhibition of human LOXIMVI cells after 48 hrs by SRB assay; format: functional; conditions: LOX IMVI
MCF7 [16] = assay: Cell cycle arrest in human MCF7 cells assessed as accumulation at G0/G1 phase at 4 uM after 24 hrs by propidium iodide staining-based flow cytometry (reference value: 64.04%); format: functional
MDA-MB-435 = assay: Growth inhibition of human MDA-MB-435 cells after 48 hrs by SRB assay; format: functional; conditions: MDA-MB-435, 48 h
PC-3 = assay: Growth inhibition of human PC3 cells after 48 hrs by SRB assay; format: functional; conditions: PC-3, 48 h
RPMI-8226 = assay: Growth inhibition of human RPMI8226 cells after 48 hrs by SRB assay; format: functional; conditions: RPMI-8226, 48 h
MDA-MB-231 = assay: Growth inhibition of human MDA-MB-231 cells after 48 hrs by SRB assay; format: functional; conditions: MDA-MB-231, 48 h
TK-10 = assay: Growth inhibition of human TK10 cells after 48 hrs by SRB assay; format: functional; conditions: TK-10, 48 h
HOP-62 = assay: Growth inhibition of human HOP62 cells after 48 hrs by SRB assay; format: functional; conditions: HOP-62, 48 h
[17] = Growth inhibition of human OVCAR5 cells after 48 hrs by SRB assay; format: functional; conditions: OVCAR-5, 48 h
[18] = Growth inhibition of human OVCAR4 cells after 48 hrs by SRB assay; format: functional; conditions: OVCAR-4, 48 h
CAKI-1 = assay: Growth inhibition of human Caki1 cells after 48 hrs by SRB assay; format: functional; conditions: CAKI-1, 48 h
Malme-3M = assay: Growth inhibition of human MALME-3M cells after 48 hrs by SRB assay; format: functional
T47D = assay: Growth inhibition of human T47D cells after 48 hrs by SRB assay; format: functional
DU-145 = assay: Growth inhibition of human DU145 cells after 48 hrs by SRB assay; format: functional; conditions: DU-145, 48 h
[19] = Growth inhibition of human SF295 cells after 48 hrs by SRB assay; format: functional; conditions: SF-295, 48 h
MCF7 [20] = assay: Cell cycle arrest in human MCF7 cells assessed as accumulation at S phase at 4 uM after 24 hrs by propidium iodide staining-based flow cytometry (reference value: 20.17%); format: functional
[21] = Growth inhibition of human Hs578T cells after 48 hrs by SRB assay; format: functional; conditions: Hs-578T
[22] = Growth inhibition of human UACC257 cells after 48 hrs by SRB assay; format: functional; conditions: UACC-257, 48 h
[23] = Growth inhibition of human OVCAR3 cells after 48 hrs by SRB assay; format: functional; conditions: OVCAR-3, 48 h
[24] = Growth inhibition of human HCC2998 cells after 48 hrs by SRB assay; format: functional; conditions: HCC 2998, 48 h
SNB-75 = assay: Growth inhibition of human SNB75 cells after 48 hrs by SRB assay; format: functional; conditions: SNB-75, 48 h
SR = assay: Growth inhibition of human SR cells after 48 hrs by SRB assay; format: functional
SNB-19 = assay: Growth inhibition of human SNB19 cells after 48 hrs by SRB assay; format: functional; conditions: SNB-19, 48 h
KM12 = assay: Growth inhibition of human KM12 cells after 48 hrs by SRB assay; format: functional; conditions: KM12, 48 h
NCI-H460 = assay: Growth inhibition of human NCI-H460 cells after 48 hrs by SRB assay; format: functional; conditions: NCI-H460, 48 h
ACHN = assay: Growth inhibition of human ACHN cells after 48 hrs by SRB assay; format: functional
HT-29 = assay: Growth inhibition of human HT-29 cells after 48 hrs by SRB assay; format: functional; conditions: HT-29, 48 h

COc1ccc(-c2nc3ncccn3c2/C=C/C(=O)c2cc(OC)c(OC)c(OC)c2)cc1 gave an Activity (MCF7 [1]) of 1.53%, a GI50 [2] of 1.88 µM and a GI50 (U-251) of 1.29 µM. It also gave a GI50 (786-0) of 1.84 µM, a GI50 (NCI-H23) of 1.35 µM and a GI50 (K562) of 2.63 µM. The GI50 (M14) was 1.53 µM, the GI50 [3] was 0.51 µM and the GI50 (SK-MEL-5) was 1.52 µM. It also gave a GI50 (NCI-H322M) of 1.76 µM, a GI50 [4] of 1.38 µM and a GI50 [5] of 1.43 µM. For the same molecule, the GI50 (SF-268) was 2.36 µM, the GI50 (IGROV-1) was 2.2 µM and the GI50 (MCF7 [6]) was 1.14 µM. For the same molecule, the inhibition (MCF7 [7]) was “Active”, the GI50 [8] was 1.11 µM and the GI50 (NCI-H226) was 2.28 µM. For the same molecule, the GI50 [9] was 3.1 µM, the GI50 [10] was 1.45 µM and the GI50 (HCT-116) was 1.17 µM. The GI50 [11] was 2.72 µM, the GI50 (MDA-MB-468) was 1.81 µM and the GI50 (SK-MEL-28) was 1.65 µM. The GI50 (A498) was 2.13 µM, the GI50 [12] was 1.61 µM and the GI50 (SW-620) was 1.75 µM. It also gave a GI50 (NCI-H522) of 1.66 µM, a GI50 [13] of 1.36 µM and a GI50 (HL-60(TB)) of 2.52 µM. The GI50 (SK-MEL-2) was 1.87 µM, the GI50 [14] was 1.56 µM and the GI50 (SK-OV-3) was 2.5 µM. It also gave a GI50 (A549) of 2.71 µM, a GI50 (COLO 205) of 1.7 µM and a GI50 (CCRF-CEM) of 4.01 µM. For the same molecule, the GI50 (SN12C) was 2.56 µM, the GI50 [15] was 1.46 µM and the Activity (MCF7 [16]) was 90.04%. The GI50 (MDA-MB-435) was 2.28 µM, the GI50 (PC-3) was 4.32 µM and the GI50 (RPMI-8226) was 2.21 µM. The GI50 (MDA-MB-231) was 2.73 µM, the GI50 (TK-10) was 2.88 µM and the GI50 (HOP-62) was 2.83 µM. The GI50 [17] was 1.53 µM, the GI50 [18] was 2.91 µM and the GI50 (CAKI-1) was 1.58 µM. The GI50 (Malme-3M) was 1.81 µM, the GI50 (T47D) was 2.53 µM and the GI50 (DU-145) was 2.55 µM. The GI50 [19] was 2.39 µM, the Activity (MCF7 [20]) was 8.43% and the GI50 [21] was 1.91 µM. The GI50 [22] was 1.82 µM, the GI50 [23] was 1.75 µM and the GI50 [24] was 1.58 µM. The GI50 (SNB-75) was 1.89 µM, the GI50 (SR) was 1.53 µM and the GI50 (SNB-19) was 3.01 µM. The GI50 (KM12) was 1.61 µM, the GI50 (NCI-H460) was 1.43 µM and the GI50 (ACHN) was 1.57 µM. It also gave a GI50 (HT-29) of 2.19 µM.
For COc1ccc(/C=C/C(=O)c2cc(OC)c(OC)c(OC)c2)cc1O, the inhibition (MCF7 [7]) was “Active”.
